Experimental data as given in patent US20230085307A1, “PYRIDAZINONE COMPOUND AND HERBICIDE” (NISSAN CHEMICAL CORPORATION, priority 2019, published 2023).

Key:
windgrass [1] = experiment: Test Example 5: herbicidal effect by foliage application, plastic box (Table 20, symbol L); assay type: in vivo, windgrass (Apera spica-venti); conditions: foliage application, 320 g/ha, three weeks after application
How it was run: (§1)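 Post-emergence foliar test in sterilized diluvial soil. Compound applied as water-diluted emulsion at a predetermined rate to 14-day-old plants; evaluation at three weeks.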

barnyard grass [2] = experiment: Test Example 5: herbicidal effect by foliage application, plastic box (Table 20, symbol H); assay type: in vivo, barnyard grass (Echinochloa crus-galli); conditions: foliage application, 320 g/ha, three weeks after application
How it was run: as §1

barnyard grass [3] = experiment: Test Example 3: herbicidal effect by foliage application, Wagner pot (Table 18, symbol H); assay type: in vivo, barnyard grass (Echinochloa crus-galli); conditions: 320 g/ha
How it was run: (§2)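 Plants were sown in alluvial soil held under 0.1–0.5 cm standing water and grown 14 days in a greenhouse at 25–30 °C. An emulsifiable formulation, water-diluted to the set dose, was then sprayed onto the foliage, and effects were scored three weeks later using previously defined criteria.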

persian speedwell [4] = experiment: Test Example 5: herbicidal effect by foliage application, plastic box (Table 20, symbol R); assay type: in vivo, Persian speedwell (Veronica persica); conditions: foliage application, 320 g/ha, three weeks after application
How it was run: as §1

redroot pigweed [5] = experiment: Test Example 5: herbicidal effect by foliage application, plastic box (Table 20, symbol N); assay type: in vivo, redroot pigweed (Amaranthus retroflexus); conditions: foliage application, 320 g/ha, three weeks after application
How it was run: as §1

blackgrass [6] = experiment: Test Example 5: herbicidal effect by foliage application, plastic box (Table 20, symbol J); assay type: in vivo, blackgrass (Alopecurus myosuroides); conditions: foliage application, 320 g/ha, three weeks after application
How it was run: as §1

redroot pigweed [7] = experiment: Test Example 4: herbicidal effect by soil treatment (Table 19, symbol N); assay type: in vivo, redroot pigweed (Amaranthus retroflexus); conditions: amount of applied herbicide 320 g/ha
How it was run: (§3)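 Scoring uses the grading scale of an earlier test, three weeks post-application. Treatment consists of spraying a diluted emulsion formulation across the surface of sterilized diluvial soil in which seeds are buried near 1.5 cm deep; boxes are kept in a greenhouse between 25° C. and 30° C.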

Chinese sprangletop = experiment: Test Example 3: herbicidal effect by foliage application, Wagner pot (Table 18, symbol D); assay type: in vivo, chinese sprangletop (Leptochloa chinensis); conditions: 320 g/ha
How it was run: as §2

southern crabgrass [8] = experiment: Test Example 5: herbicidal effect by foliage application, plastic box (Table 20, symbol F); assay type: in vivo, southern crabgrass (Digitaria ciliaris); conditions: foliage application, 320 g/ha, three weeks after application
How it was run: as §1

lambsquarters [9] = experiment: Test Example 5: herbicidal effect by foliage application, plastic box (Table 20, symbol O); assay type: in vivo, lambsquarters (Chenopodium album); conditions: foliage application, 320 g/ha, three weeks after application
How it was run: as §1

barnyard grass [10] = experiment: Test Example 4: herbicidal effect by soil treatment (Table 19, symbol H); assay type: in vivo, barnyard grass (Echinochloa crus-galli); conditions: amount of applied herbicide 320 g/ha
How it was run: as §3

wild oat [11] = experiment: Test Example 5: herbicidal effect by foliage application, plastic box (Table 20, symbol I); assay type: in vivo, wild oat (Avena fatua); conditions: foliage application, 320 g/ha, three weeks after application
How it was run: as §1

Italian ryegrass [12] = experiment: Test Example 4: herbicidal effect by soil treatment (Table 19, symbol K); assay type: in vivo, Italian ryegrass (Lolium multiflorum); conditions: amount of applied herbicide 320 g/ha
How it was run: as §3

Italian ryegrass [13] = experiment: Test Example 5: herbicidal effect by foliage application, plastic box (Table 20, symbol K); assay type: in vivo, Italian ryegrass (Lolium multiflorum); conditions: foliage application, 320 g/ha, three weeks after application
How it was run: as §1

velvetleaf [14] = experiment: Test Example 4: herbicidal effect by soil treatment (Table 19, symbol M); assay type: in vivo, velvetleaf (Abutilon theophrasti); conditions: amount of applied herbicide 320 g/ha
How it was run: as §3

persian speedwell [15] = experiment: Test Example 4: herbicidal effect by soil treatment (Table 19, symbol R); assay type: in vivo, Persian speedwell (Veronica persica); conditions: amount of applied herbicide 320 g/ha
How it was run: as §3

false cleavers [16] = experiment: Test Example 5: herbicidal effect by foliage application, plastic box (Table 20, symbol Q); assay type: in vivo, false cleavers (Galium spurium); conditions: foliage application, 320 g/ha, three weeks after application
How it was run: as §1

green foxtail [17] = experiment: Test Example 4: herbicidal effect by soil treatment (Table 19, symbol G); assay type: in vivo, green foxtail (Setaria viridis); conditions: amount of applied herbicide 320 g/ha
How it was run: as §3

lambsquarters [18] = experiment: Test Example 4: herbicidal effect by soil treatment (Table 19, symbol O); assay type: in vivo, lambsquarters (Chenopodium album); conditions: amount of applied herbicide 320 g/ha
How it was run: as §3

chickweed [19] = experiment: Test Example 5: herbicidal effect by foliage application, plastic box (Table 20, symbol P); assay type: in vivo, common chickweed (Stellaria media); conditions: foliage application, 320 g/ha, three weeks after application
How it was run: as §1

velvetleaf [20] = experiment: Test Example 5: herbicidal effect by foliage application, plastic box (Table 20, symbol M); assay type: in vivo, velvetleaf (Abutilon theophrasti); conditions: foliage application, 320 g/ha, three weeks after application
How it was run: as §1

windgrass [21] = experiment: Test Example 4: herbicidal effect by soil treatment (Table 19, symbol L); assay type: in vivo, windgrass (Apera spica-venti); conditions: amount of applied herbicide 320 g/ha
How it was run: as §3

green foxtail [22] = experiment: Test Example 5: herbicidal effect by foliage application, plastic box (Table 20, symbol G); assay type: in vivo, green foxtail (Setaria viridis); conditions: foliage application, 320 g/ha, three weeks after application
How it was run: as §1

southern crabgrass [23] = experiment: Test Example 4: herbicidal effect by soil treatment (Table 19, symbol F); assay type: in vivo, southern crabgrass (Digitaria ciliaris); conditions: amount of applied herbicide 320 g/ha
How it was run: as §3

chickweed [24] = experiment: Test Example 4: herbicidal effect by soil treatment (Table 19, symbol P); assay type: in vivo, common chickweed (Stellaria media); conditions: amount of applied herbicide 320 g/ha
How it was run: as §3

wild oat [25] = experiment: Test Example 4: herbicidal effect by soil treatment (Table 19, symbol I); assay type: in vivo, wild oat (Avena fatua); conditions: amount of applied herbicide 320 g/ha
How it was run: as §3

false cleavers [26] = experiment: Test Example 4: herbicidal effect by soil treatment (Table 19, symbol Q); assay type: in vivo, false cleavers (Galium spurium); conditions: amount of applied herbicide 320 g/ha
How it was run: as §3

rice flat sedge = experiment: Test Example 3: herbicidal effect by foliage application, Wagner pot (Table 18, symbol E); assay type: in vivo, rice flat sedge (Cyperus iria); conditions: 320 g/ha
How it was run: as §2

blackgrass [27] = experiment: Test Example 4: herbicidal effect by soil treatment (Table 19, symbol J); assay type: in vivo, blackgrass (Alopecurus myosuroides); conditions: amount of applied herbicide 320 g/ha
How it was run: as §3

COc1ccc2c(-c3c(O)c(C)nn(C)c3=O)c(-c3ccccc3)sc2c1 [3-061]
L: windgrass, herbicidal effect grade (windgrass [1]): 3 (Herbicidal rate of 40% or more and less than 70%) | H: barnyard grass, herbicidal effect grade (barnyard grass [2]): 0 (Herbicidal rate of 5% or less (almost no effect)) | herbicidal effect on barnyard grass (H) (barnyard grass [3]): 2 (Herbicidal rate of 20% or more and less than 40%) | R: persian speedwell, herbicidal effect grade (persian speedwell [4]): 5 (Herbicidal rate of 90% or more (almost completely withered)) | N: redroot pigweed, herbicidal effect grade (redroot pigweed [5]): 4 (Herbicidal rate of 70% or more and less than 90%) | J: blackgrass, herbicidal effect grade (blackgrass [6]): 3 (Herbicidal rate of 40% or more and less than 70%) | N: redroot pigweed, herbicidal effect grade (redroot pigweed [7]): 0 (Herbicidal rate of 5% or less (almost no effect)) | herbicidal effect on Chinese sprangletop (D) (Chinese sprangletop): 3 (Herbicidal rate of 40% or more and less than 70%) | F: southern crabgrass, herbicidal effect grade (southern crabgrass [8]): 0 (Herbicidal rate of 5% or less (almost no effect)) | O: lambsquarters, herbicidal effect grade (lambsquarters [9]): 4 (Herbicidal rate of 70% or more and less than 90%) | H: barnyard grass, herbicidal effect grade (barnyard grass [10]): 3 (Herbicidal rate of 40% or more and less than 70%) | I: wild oat, herbicidal effect grade (wild oat [11]): 4 (Herbicidal rate of 70% or more and less than 90%) | K: Italian ryegrass, herbicidal effect grade (Italian ryegrass [12]): 0 (Herbicidal rate of 5% or less (almost no effect)) | K: Italian ryegrass, herbicidal effect grade (Italian ryegrass [13]): 3 (Herbicidal rate of 40% or more and less than 70%) | M: velvetleaf, herbicidal effect grade (velvetleaf [14]): 0 (Herbicidal rate of 5% or less (almost no effect)) | R: persian speedwell, herbicidal effect grade (persian speedwell [15]): 4 (Herbicidal rate of 70% or more and less than 90%) | Q: false cleavers, herbicidal effect grade (false cleavers [16]): 4 (Herbicidal rate of 70% or more and less than 90%) | G: green foxtail, herbicidal effect grade (green foxtail [17]): 4 (Herbicidal rate of 70% or more and less than 90%) | O: lambsquarters, herbicidal effect grade (lambsquarters [18]): 2 (Herbicidal rate of 20% or more and less than 40%) | P: chickweed, herbicidal effect grade (chickweed [19]): 5 (Herbicidal rate of 90% or more (almost completely withered)) | M: velvetleaf, herbicidal effect grade (velvetleaf [20]): 5 (Herbicidal rate of 90% or more (almost completely withered)) | L: windgrass, herbicidal effect grade (windgrass [21]): 0 (Herbicidal rate of 5% or less (almost no effect)) | G: green foxtail, herbicidal effect grade (green foxtail [22]): 0 (Herbicidal rate of 5% or less (almost no effect)) | F: southern crabgrass, herbicidal effect grade (southern crabgrass [23]): 0 (Herbicidal rate of 5% or less (almost no effect)) | P: chickweed, herbicidal effect grade (chickweed [24]): 3 (Herbicidal rate of 40% or more and less than 70%) | I: wild oat, herbicidal effect grade (wild oat [25]): 2 (Herbicidal rate of 20% or more and less than 40%) | Q: false cleavers, herbicidal effect grade (false cleavers [26]): 2 (Herbicidal rate of 20% or more and less than 40%) | herbicidal effect on rice flat sedge (E) (rice flat sedge): 5 (Herbicidal rate of 90% or more (almost completely withered))

COc1cc2sc(-c3ccc(F)cc3OC)c(-c3c(O)c(C)nn(C)c3=O)c2cc1OC [5-060]
herbicidal effect on windgrass (L) (windgrass [1]): 3 (Herbicidal rate of 40% or more and less than 70%) | herbicidal effect on barnyard grass (H) (barnyard grass [2]): 4 (Herbicidal rate of 70% or more and less than 90%) | herbicidal effect on barnyard grass (H) (barnyard grass [3]): 5 (Herbicidal rate of 90% or more (almost completely withered)) | herbicidal effect on persian speedwell (R) (persian speedwell [4]): 4 (Herbicidal rate of 70% or more and less than 90%) | herbicidal effect on blackgrass (J) (blackgrass [6]): 4 (Herbicidal rate of 70% or more and less than 90%) | N: redroot pigweed, herbicidal effect grade (redroot pigweed [7]): 0 (Herbicidal rate of 5% or less (almost no effect)) | herbicidal effect on Chinese sprangletop (D) (Chinese sprangletop): 2 (Herbicidal rate of 20% or more and less than 40%) | herbicidal effect on southern crabgrass (F) (southern crabgrass [8]): 3 (Herbicidal rate of 40% or more and less than 70%) | herbicidal effect on lambsquarters (O) (lambsquarters [9]): 3 (Herbicidal rate of 40% or more and less than 70%) | H: barnyard grass, herbicidal effect grade (barnyard grass [10]): 0 (Herbicidal rate of 5% or less (almost no effect)) | herbicidal effect on wild oat (I) (wild oat [11]): 4 (Herbicidal rate of 70% or more and less than 90%) | K: Italian ryegrass, herbicidal effect grade (Italian ryegrass [12]): 1 (Herbicidal rate of 5% or more and less than 20%) | herbicidal effect on Italian ryegrass (K) (Italian ryegrass [13]): 3 (Herbicidal rate of 40% or more and less than 70%) | M: velvetleaf, herbicidal effect grade (velvetleaf [14]): 0 (Herbicidal rate of 5% or less (almost no effect)) | R: persian speedwell, herbicidal effect grade (persian speedwell [15]): 3 (Herbicidal rate of 40% or more and less than 70%) | herbicidal effect on false cleavers (Q) (false cleavers [16]): 0 (Herbicidal rate of 5% or less (almost no effect)) | G: green foxtail, herbicidal effect grade (green foxtail [17]): 0 (Herbicidal rate of 5% or less (almost no effect)) | O: lambsquarters, herbicidal effect grade (lambsquarters [18]): 0 (Herbicidal rate of 5% or less (almost no effect)) | herbicidal effect on velvetleaf (M) (velvetleaf [20]): 0 (Herbicidal rate of 5% or less (almost no effect)) | L: windgrass, herbicidal effect grade (windgrass [21]): 1 (Herbicidal rate of 5% or more and less than 20%) | herbicidal effect on green foxtail (G) (green foxtail [22]): 4 (Herbicidal rate of 70% or more and less than 90%) | F: southern crabgrass, herbicidal effect grade (southern crabgrass [23]): 0 (Herbicidal rate of 5% or less (almost no effect)) | P: chickweed, herbicidal effect grade (chickweed [24]): 5 (Herbicidal rate of 90% or more (almost completely withered)) | I: wild oat, herbicidal effect grade (wild oat [25]): 0 (Herbicidal rate of 5% or less (almost no effect)) | J: blackgrass, herbicidal effect grade (blackgrass [27]): 0 (Herbicidal rate of 5% or less (almost no effect)) | Q: false cleavers, herbicidal effect grade (false cleavers [26]): 0 (Herbicidal rate of 5% or less (almost no effect)) | herbicidal effect on rice flat sedge (E) (rice flat sedge): 3 (Herbicidal rate of 40% or more and less than 70%)
